Laboratory results from ChEMBL document CHEMBL4421722, “Inhibitors of protein prenyltransferases” (2013).
Calls of active or inactive are those of the source. The calls are words filed in the database; no cut-off is given here.

Legend:
[1] = Inhibition of rat recombinant geranylgeranyltransferase type I expressed in Escherichia coli assessed as reduction in geranylgeranylation of RhoA incubated for 30 mins in presence of [3H]GGPP by scintillation counting assay relative to control
K562 [2] = experiment: Antiproliferative activity against human K562 cells assessed as inhibition of cell proliferation incubated for 72 hrs by CCK8 assay; assay type: functional, cell-based; conditions: for GI50: K562, 72 h
Jurkat [3] = experiment: Antiproliferative activity against human Jurkat cells assessed as inhibition of cell proliferation incubated for 72 hrs by CCK8 assay; assay type: functional, cell-based
MCF7 = experiment: Antiproliferative activity against human MCF7 cells assessed as inhibition of cell proliferation incubated for 6 days by CCK8 assay; assay type: functional, cell-based
[4] = Antiproliferative activity against human MCF10A cells assessed as inhibition of cell proliferation incubated for 72 hrs by CCK8 assay; assay type: cell-based, MCF-10A
MIA PaCa-2 = experiment: Antiproliferative activity against human MIAPaCa2 cells assessed as inhibition of cell proliferation incubated for 72 hrs by CCK8 assay; assay type: functional, cell-based; conditions: MIA PaCa-2, 72 h
Capan-2 = experiment: Antiproliferative activity against human Capan2 cells assessed as inhibition of cell proliferation incubated for 72 hrs by CCK8 assay; assay type: functional, cell-based; conditions: Capan-2, 72 h
CFPAC-1 = experiment: Antiproliferative activity against human CFPAC-1 cells assessed as inhibition of cell proliferation incubated for 72 hrs by CCK8 assay; assay type: functional, cell-based; conditions: CFPAC-1, 72 h
BT-474 = experiment: Antiproliferative activity against human BT474 cells assessed as inhibition of cell proliferation incubated for 72 hrs by CCK8 assay; assay type: functional, cell-based; conditions: BT-474, 72 h
ASPC1 = experiment: Antiproliferative activity against human AsPC1 cells assessed as inhibition of cell proliferation incubated for 6 days by CCK8 assay; assay type: functional, cell-based; conditions: ASPC1, 144 h
PANC-1 [5] = experiment: Antiproliferative activity against human PANC1 cells assessed as inhibition of cell proliferation incubated for 72 hrs by CCK8 assay; assay type: functional, cell-based; conditions: PANC-1, 72 h
Rattus norvegicus [6] = organism: Rattus norvegicus; experiment: Inhibition of rat recombinant geranylgeranyltransferase type I expressed in Escherichia coli assessed as residual enzyme activity for geranylgeranylation of K-Ras4B at 50 uM incubated for 30 mins in presence of [3H]GGPP by scintillation counting assay relative to control
Rattus norvegicus [7] = organism: Rattus norvegicus; experiment: Inhibition of rat recombinant geranylgeranyltransferase type I expressed in Escherichia coli assessed as residual enzyme activity for geranylgeranylation of RhoA at 50 uM incubated for 30 mins in presence of [3H]GGPP by scintillation counting assay relative to control
Rattus norvegicus [8] = organism: Rattus norvegicus; experiment: (§1) Competitive inhibition of rat recombinant geranylgeranyltransferase type I expressed in Escherichia coli assessed as reduction in geranylgeranylation of RhoA incubated for 30 mins in presence of fixed level of [3H]GGPP and varying RhoA levels by scintillation counting assay relative to control
Rattus norvegicus [9] = organism: Rattus norvegicus; experiment: (§2) Competitive inhibition of rat recombinant geranylgeranyltransferase type I expressed in Escherichia coli assessed as reduction in geranylgeranylation of RhoA incubated for 30 mins in presence of varying level of [3H]GGPP and fixed RhoA levels by scintillation counting assay relative to control
HEK293 [10] = experiment: Inhibition of geranylgeranyltransferase type I in HEK293 cells expressing Myc-HA-tagged Rheb-WT assessed as effect on unprenylated Rap1 accumulation at 3.1 to 25 uM incubated for 48 hrs by SDS-PAGE and immunoblot analysis; assay type: cell-based; conditions: Homo sapiens
HEK293 [11] = experiment: Inhibition of geranylgeranyltransferase type I in HEK293 cells expressing Myc-HA-tagged Rheb-CVSL assessed as effect on unprenylated Rap1 accumulation at 12.5 to 50 uM incubated for 48 hrs by SDS-PAGE and immunoblot analysis; assay type: cell-based; conditions: Homo sapiens
K562 [12] = experiment: Induction of cell cycle arrest in human K562 cells assessed as accumulation at G1 phase up to […] incubated for 48 hrs by flow cytometry; assay type: functional, cell-based
[13] = biological target: T1, Geranylgeranyl transferase type-2 (Homo sapiens) (UniProt P53611+Q92696); experiment: Inhibition of RabGGTase (unknown origin) at 50000 nM using YPTI as substrate protein and [3H]geranylgeranyl pyrophosphate incubated for 20 mins by scintillation counting assay; assay type: protein-complex assay
[14] = biological target: Protein farnesyltransferase (Rattus norvegicus) (UniProt Q04631+Q02293); experiment: Inhibition of rat recombinant FTase alpha/beta expressed in Escherichia coli at 50000 nM using K-Ras4B as a substrate as and [3H]farnesyl pyrophosphate incubated for 30 mins by scintillation counting assay
Rattus norvegicus [15] = organism: Rattus norvegicus; experiment: as §1, with “Uncompetitive” for “Competitive”, “varying” for “fixed”, “fixed” for “varying”, “by Michaelis-Menten plot analysis” for “relative to control”
MDA-MB-231 = experiment: Antiproliferative activity against human MDA-MB-231 cells assessed as inhibition of cell proliferation incubated for 72 hrs by CCK8 assay; assay type: functional; conditions: MDA-MB-231, 72 h
[16] = Inhibition of rat recombinant geranylgeranyltransferase type I expressed in Escherichia coli assessed as reduction in geranylgeranylation of K-Ras4B incubated for 30 mins in presence of [3H]GGPP by scintillation counting assay
Jurkat [17] = experiment: Antiproliferative activity against human Jurkat cells assessed as inhibition of cell proliferation at 12.5 uM incubated for 72 hrs by CCK8 assay; assay type: functional, cell-based
PANC-1 [18] = experiment: Antiproliferative activity against human PANC1 cells assessed as inhibition of cell proliferation at 12.5 uM incubated for 72 hrs by CCK8 assay; assay type: functional, cell-based
[19] = biological target: T1, Geranylgeranyl transferase type-2 (Homo sapiens); experiment: Inhibition of RabGGTase (unknown origin) up to 10000 nM using YPTI as substrate protein and [3H]geranylgeranyl pyrophosphate incubated for 20 mins by scintillation counting assay; assay type: protein-complex assay
HEK293 [20] = experiment: Inhibition of geranylgeranyltransferase type I in HEK293 cells expressing Myc-HA-tagged Rheb-WT assessed as effect on unprenylated Rap1 accumulation at 2.5 uM incubated for 48 hrs by SDS-PAGE and immunoblot analysis; assay type: cell-based; conditions: Homo sapiens
[21] = as §2
[22] = Antiproliferative activity against human SEMK2 cells assessed as inhibition of cell proliferation incubated for 6 days by CCK8 assay; assay type: functional, cell-based; conditions: SEMK2, 144 h
HPAC = experiment: Antiproliferative activity against human HPAC cells assessed as inhibition of cell proliferation incubated for 72 hrs by CCK8 assay; assay type: functional, cell-based
K562 [23] = experiment: Induction of cell cycle arrest in human K562 cells assessed as accumulation at G1 phase incubated for 48 hrs by flow cytometry; assay type: functional, cell-based
K562 [24] = experiment: Induction of cell cycle arrest in human K562 cells assessed as reduction in accumulation at S phase incubated for 48 hrs by flow cytometry; assay type: functional, cell-based
HEK293 [25] = experiment: Inhibition of geranylgeranyltransferase type I in HEK293 cells expressing Myc-HA-tagged Rheb-WT assessed as effect on unprenylated Rap1 accumulation at 1.25 to 10 uM incubated for 48 hrs by SDS-PAGE and immunoblot analysis; assay type: cell-based; conditions: Homo sapiens
HEK293 [26] = experiment: Inhibition of geranylgeranyltransferase type I in HEK293 cells expressing Myc-HA-tagged Rheb-CVSL assessed as effect on unprenylated Rap1 accumulation at 5 to 10 uM incubated for 48 hrs by SDS-PAGE and immunoblot analysis; assay type: cell-based; conditions: Homo sapiens

Row | IC50 [1] [µM] | GI50 (K562 [2]) [µM] | GI50 (Jurkat [3]) [µM] | GI50 (MCF7; MCF7, 144 h) [µM] | GI50 (MIA PaCa-2) [µM] | GI50 (BT-474) [µM] | GI50 (ASPC1) [µM] | GI50 (PANC-1 [5]) [µM] | Structure (SMILES) | GI50 at 72 h [4] [µM] | GI50 (Capan-2) [µM] | GI50 (CFPAC-1) [µM] | other results
1 | > 50 | 6.15 | 6.1 | 10.9 | 12 | – | – | – | Cc1ccccc1S(=O)(=O)N1[C@@H](c2cccc(Cl)c2)C(C(=O)N[C@@H](CC(C)C)C(N)=O)=CC[C@H]1c1ccc(Cl)cc1 | > 20 | 14 | 13.7 | –
2 | 10 to 50 | 5.95 to 6.3 | 6.4 to 9.76 | 3.1 to 4.71 | 6.7 to 7.17 | 10.1 to 10.8 | 8.61 to 11.4 | 8.6 to 8.85 | Cc1ccccc1S(=O)(=O)N1[C@@H](c2ccc(Cl)cc2)C(C(=O)N[C@@H](Cc2ccccc2)C(N)=O)=C[C@H]1C(C)CC(C)(C)C (some centres undefined) | 9.16 to 11.3 | 7.5 to 10.5 | – | –
3 | 0.31 to 0.313 | – | 20 | – | – | – | – | – | Cc1ccccc1S(=O)(=O)N1[C@@H](c2cccc(Cl)c2)C(C(=O)O)=CC[C@H]1c1ccc(Cl)cc1 | – | – | – | Activity (Rattus norvegicus [6]): 14.7 to 41.7%; Activity (Rattus norvegicus [7]): 7.5 to 24.8%; inhibition (K562 [2]): Active; inhibition (Rattus norvegicus [8]): Active; inhibition (Rattus norvegicus [9]): inactive; inhibition (HEK293 [10]): Active; inhibition (HEK293 [11]): Active; Activity (K562 [12]): Active; inhibition [13]: inactive; inhibition [14]: inactive; inhibition (Rattus norvegicus [15]): Active
4 | 5.4 to 7.6 | 6.74 to 6.9 | 5.62 to 6.9 | – | 7.49 to 8.06 | 10.6 to 10.8 | 11.5 to 12.9 | 7.52 to 11.7 | Cc1ccccc1S(=O)(=O)N1[C@@H](c2ccc(Cl)c(Cl)c2)C(C(=O)N[C@@H](Cc2ccccc2)C(N)=O)=C[C@H]1C(C)(C)C | – | 8.45 to 11.3 | 2.03 to 6.09 | GI50 (MDA-MB-231): 5.54 to 12.6 µM
5 | – | 7.06 | – | 3.43 | – | – | – | – | CC(C)C[C@H](NC(=O)C1=CC[C@@H](c2cccc(Br)c2)N(S(=O)(=O)c2ccc(Cl)cc2)[C@H]1c1cccc(Cl)c1)C(N)=O | 14.2 | – | – | –
6 | 0.5 to 2.5 | – | – | – | – | – | – | – | Cc1ccccc1S(=O)(=O)N1[C@@H](c2ccc(Cl)cc2)C(C(=O)O)=C[C@H]1C(C)(C)C (relative stereo) | – | – | – | Activity (Rattus norvegicus [6]): 13.3%; Activity (Rattus norvegicus [7]): 5.3%; IC50 [16]: 2 µM; inhibition (Rattus norvegicus [8]): Active; inhibition (Rattus norvegicus [9]): inactive; inhibition (HEK293 [10]): Active; inhibition (HEK293 [11]): Active; growth inhibition (GI) (Jurkat [17]): Active; growth inhibition (GI) (PANC-1 [18]): Active; inhibition [19]: Active; inhibition [14]: inactive; inhibition (Rattus norvegicus [15]): Active; inhibition (HEK293 [20]): inactive
7 | – | – | – | – | – | – | – | – | Cc1ccccc1S(=O)(=O)N1[C@@H](c2ccc(Cl)cc2)C(COCC(=O)N[C@@H](Cc2ccccc2)C(N)=O)=C[C@H]1C(C)(C)C | – | – | – | IC50 (Jurkat [3]): 1.3 µM; inhibition (MCF7): Dose-dependent effect; IC50 (MCF7; MCF7, 144 h): 6.4 µM; IC50 (BT-474): 11.6 µM; IC50 (MIA PaCa-2): 13.9 µM; IC50 (ASPC1): > 20 µM; IC50 (PANC-1 [5]): 12.6 µM; IC50 (Capan-2): 11.1 µM; IC50 (CFPAC-1): 8.1 µM; IC50 [21]: 12.5 µM; IC50 [22]: 14.1 µM; IC50 (HPAC): 11.7 µM; Activity (K562 [23]): Dose-dependent effect; Activity (K562 [24]): Dose-dependent effect
8 | – | – | – | – | – | – | – | – | COC(=O)[C@H](Cc1ccccc1)NCC(=O)OCC1=C[C@@H](C(C)(C)C)N(S(=O)(=O)c2ccccc2C)[C@H]1c1ccc(Cl)cc1 | – | – | – | inhibition (HEK293 [25]): Active; inhibition (HEK293 [26]): Active
9 | 6 to 16 | 5.21 to 9.18 | 4.74 to 8.75 | – | 6.15 to 12.1 | 9.08 to 9.9 | 12.2 to 16.8 | 9.05 to 12 | CC(C)(C)[C@@H]1C=C(C(=O)N[C@@H](Cc2ccccc2)C(N)=O)[C@H](c2ccc(Br)cc2)N1S(=O)(=O)c1ccccc1Cl | – | 8.32 to 10.7 | 6.16 to 6.3 | GI50 (MDA-MB-231): 4.43 to 11.3 µM
